Starred links: 1 amine or outer side, 2 acyl side, 3 side chain; linkers in the order of their positions; H or OH if unused. Positions of bridges follow the written chain, without caps; N, C: chain ends. Non-standard residues stand in square brackets, D forms with d. Residues, ends and D or L forms follow the SMILES beside them. *: point of attachment. hPhe(3-Cl-4-CF3) = N[C@@H](CCc1ccc(C(F)(F)F)c(Cl)c1)C(=O)O; NMePhe(4-CF3) = CN[C@@H](Cc1ccc(C(F)(F)F)cc1)C(=O)O; NMePhe(3-OMe) = CN[C@@H](Cc1cccc(OC)c1)C(=O)O; X71 = O=C([C@H](Cc1cc(Cl)cc(I)c1)N[*:1])[*:2]; NMePhe(4-Br) = CN[C@@H](Cc1ccc(Br)cc1)C(=O)O; NMePhe(4-Me) = CN[C@@H](Cc1ccc(C)cc1)C(=O)O; NMeNva(5,5-F2) = CN[C@@H](CCC(F)F)C(=O)O; NMeGly(cPent) = CN[C@H](C(=O)O)C1CCCC1; Phe(3-I) = N[C@@H](Cc1cccc(I)c1)C(=O)O; NMeAla(cPr) = CN[C@@H](CC1CC1)C(=O)O; NMeY = CN[C@@H](Cc1ccc(O)cc1)C(=O)O; NMeCha = CN[C@@H](CC1CCCCC1)C(=O)O; NMeGly(cPr) = CN[C@H](C(=O)O)C1CC1; NMeChg = CN[C@H](C(=O)O)C1CCCCC1; NMeI = CC[C@H](C)[C@H](NC)C(=O)O; NMeD = CN[C@@H](CC(=O)O)C(=O)O; NMeL = CN[C@@H](CC(C)C)C(=O)O; hLeu = CC(C)CC[C@H](N)C(=O)O; NMeV = CN[C@H](C(=O)O)C(C)C; d(β3hA) = C[C@@H](N)CC(=O)O; NMeAbu = CC[C@H](NC)C(=O)O; NMeA = CN[C@@H](C)C(=O)O; NMeAib = CNC(C)(C)C(=O)O; Nle = CCCC[C@H](N)C(=O)O; Piperidide = C1CCN(*)CC1; Pra = C#CC[C@H](N)C(=O)O; dNMeA = CN[C@H](C)C(=O)O; Ac5c = NC1(C(=O)O)CCCC1; Aze = O=C(O)[C@@H]1CCN1; Sar = CNCC(=O)O

T1 sequence (P01116 1-188 isoform P01116-2 G12D): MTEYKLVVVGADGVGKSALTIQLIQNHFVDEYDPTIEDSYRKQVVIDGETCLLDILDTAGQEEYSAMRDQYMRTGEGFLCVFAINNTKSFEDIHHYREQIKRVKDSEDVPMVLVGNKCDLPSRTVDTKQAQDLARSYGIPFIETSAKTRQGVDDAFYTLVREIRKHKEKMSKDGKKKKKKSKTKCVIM

This assay addresses T1, Kras and SOS1 (biotin-tagged human Kras loaded with GDP, His-tagged human SOS1) (Homo sapiens, UniProt P01116, G12D).
T1 construct: made in house; host or cells: E. coli (stated for Kras only)
In words: Protein-protein interaction inhibition between Kras and SOS1 (KrasGl2D-SOS PPI) using AlphaScreen. Type of assay: binding. The following applies: AlphaScreen; biotin-tagged human Kras loaded with GDP, His-tagged human SOS1; read-out: KRAS G12D-SOS PPI IC50. The essentials:
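AlphaScreen format: Ni donor beads capture His-SOS1, streptavidin acceptor beads capture biotinylated Kras (E. coli-expressed, GDP-loaded post-purification). Excite 680 nm, read 520-620 nm.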
In general terms: Bead proximity is the source of the signal in Alpha formats.
For `CCCC[C@@H]1NC(=O)[C@H](Cc2cc(Cl)cc(I)c2)NC(=O)CN(C)C(=O)[C@H](Cc2ccc(OC)cc2)N(C)C(=O)[C@@H]2CCN2C(=O)[C@H](C)N(C)C(=O)[C@H]([C@@H](C)CC)NC(=O)[C@H](CC)N(C)C(=O)C[C@@H](C(=O)N2CCCCC2)N(C)C(=O)[C@H](CC(C)C)NC(=O)C(C)(C)N(C)C1=O` [Compound 1156] ([NMeAbu]I[NMeA][Aze][NMeY](Me)[Sar][X71][Nle][NMeAib]L[NMeD]-Piperidide; lactam N-11), the IC50 (as a rule, the concentration at which inhibition is half-maximal) stood at 0.14 µM.

`CC[C@H](C)[C@@H]1NC(=O)[C@H](CC2CC2)N(C)C(=O)C[C@@H](C)NC(=O)[C@H](C(C)C)N(C)C(=O)C2(CCCC2)NC(=O)[C@@H]2CCCN2C(=O)[C@H](CCc2ccc(C(F)(F)F)c(Cl)c2)NC(=O)CN(C)C(=O)[C@H](CC2CCCCC2)N(C)C(=O)CN(C)C(=O)CN(C)C1=O` [Compound 248] (cyclo([Ac5c][NMeV][d(β3hA)][NMeAla(cPr)]I[Sar][Sar][NMeCha][Sar][hPhe(3-Cl-4-CF3)]P)): the IC50 is 0.031 µM.

With `CC[C@H](C)[C@@H]1NC(=O)[C@H](C)N(C)C(=O)C[C@@H](C(=O)N(C)C)N(C)C(=O)[C@H]([C@@H](C)CC)N(C)C(=O)C2(CCCC2)NC(=O)[C@H](Cc2cccc(OC)c2)N(C)C(=O)[C@H](CCc2ccc(C(F)(F)F)c(Cl)c2)NC(=O)CN(C)C(=O)[C@H](Cc2ccc(C)cc2)N(C)C(=O)[C@@H]2CCN2C(=O)[C@H](C)N(C)C1=O` [Compound 1922] ([NMeA]I[NMeA][Aze][NMePhe(4-Me)][Sar][hPhe(3-Cl-4-CF3)][NMePhe(3-OMe)][Ac5c][NMeI][NMeD]-NMe2; lactam N-11), the IC50 was determined as 0.0031 µM.

Regarding `CCCC[C@@H]1NC(=O)[C@H](Cc2cccc(I)c2)NC(=O)CN(C)C(=O)[C@H](Cc2ccc(C(F)(F)F)cc2)N(C)C(=O)CN(C)C(=O)CN(C)C(=O)[C@H]([C@@H](C)CC)NC(=O)[C@H](CC(C)C)N(C)C(=O)C[C@@H](C(=O)N2CCCCC2)N(C)C(=O)[C@H](CCC(C)C)NC(=O)C(C)(C)N(C)C1=O` [Compound 1433] ([NMeL]I[Sar][Sar][NMePhe(4-CF3)][Sar][Phe(3-I)][Nle][NMeAib][hLeu][NMeD]-Piperidide; lactam N-11), the IC50 stood at 0.029 µM.

Consider `C#CC[C@@H]1NC(=O)[C@H](Cc2cccc(I)c2)NC(=O)CN(C)C(=O)[C@H](Cc2ccc(OC)cc2)N(C)C(=O)[C@@H]2CCN2C(=O)[C@H](C)N(C)C(=O)[C@H]([C@@H](C)CC)NC(=O)[C@H](CC(C)C)N(C)C(=O)C[C@@H](C(=O)N2CCCCC2)N(C)C(=O)[C@H](CC(C)C)NC(=O)C(C)(C)N(C)C1=O` [Compound 1350] ([NMeL]I[NMeA][Aze][NMeY](Me)[Sar][Phe(3-I)][Pra][NMeAib]L[NMeD]-Piperidide; lactam N-11), for which the IC50 is 0.017 µM.

In the case of `CC[C@H](C)[C@@H]1NC(=O)[C@H](CC(C)C)N(C)C(=O)C[C@@H](C(=O)N(C)C)N(C)C(=O)[C@H]([C@@H](C)CC)N(C)C(=O)C2(CCCC2)NC(=O)[C@H](Cc2ccc(Br)cc2)N(C)C(=O)[C@H](CCc2ccc(C(F)(F)F)c(Cl)c2)NC(=O)CN(C)C(=O)[C@H](Cc2ccc(C)cc2)N(C)C(=O)[C@@H]2CCN2C(=O)[C@H](C)N(C)C1=O` [Compound 1964] ([NMeL]I[NMeA][Aze][NMePhe(4-Me)][Sar][hPhe(3-Cl-4-CF3)][NMePhe(4-Br)][Ac5c][NMeI][NMeD]-NMe2; lactam N-11), the IC50 turned out to be 0.036 µM.

Take `CC[C@H](C)[C@@H]1NC(=O)[C@H](CC(C)C)N(C)C(=O)C[C@@H](C(=O)N2CCCCC2)N(C)C(=O)[C@H](C2CCCCC2)N(C)C(=O)C2(CCCC2)NC(=O)[C@@H]2CCCN2C(=O)[C@H](CCc2ccc(C(F)(F)F)c(Cl)c2)NC(=O)CN(C)C(=O)[C@H](CCC(F)F)N(C)C(=O)CN(C)C(=O)CN(C)C1=O` [Compound 1647] ([NMeL]I[Sar][Sar][NMeNva(5,5-F2)][Sar][hPhe(3-Cl-4-CF3)]P[Ac5c][NMeChg][NMeD]-Piperidide; lactam N-11): the IC50 was determined as 0.003 µM.

Consider `CC[C@H](C)[C@@H]1NC(=O)[C@H](CC(C)C)N(C)C(=O)C[C@@H](C)NC(=O)[C@H](C2CCCC2)N(C)C(=O)C2(CCCC2)NC(=O)[C@@H]2CCCN2C(=O)[C@H](CCc2ccc(C(F)(F)F)c(Cl)c2)NC(=O)[C@@H](C)N(C)C(=O)[C@H](Cc2ccc(C(F)(F)F)cc2)N(C)C(=O)CN(C)C(=O)CN(C)C1=O` [Compound 1542] (cyclo([Ac5c][NMeGly(cPent)][d(β3hA)][NMeL]I[Sar][Sar][NMePhe(4-CF3)][dNMeA][hPhe(3-Cl-4-CF3)]P)), for which the IC50 amounted to 0.17 µM.

In the case of `CC[C@H](C)[C@@H]1NC(=O)[C@H](C2CC2)N(C)C(=O)C[C@@H](C)NC(=O)[C@H](C(C)C)N(C)C(=O)C2(CCCC2)NC(=O)[C@@H]2CCCN2C(=O)[C@H](CCc2ccc(C(F)(F)F)c(Cl)c2)NC(=O)CN(C)C(=O)[C@H](CC2CCCCC2)N(C)C(=O)CN(C)C(=O)CN(C)C1=O` [Compound 844] (cyclo([Ac5c][NMeV][d(β3hA)][NMeGly(cPr)]I[Sar][Sar][NMeCha][Sar][hPhe(3-Cl-4-CF3)]P)), the IC50 was 0.028 µM.
